Source: paper PMC10049026, “In Silico Binding of 2-Aminocyclobutanones to SARS-CoV-2 Nsp13 Helicase and Demonstration of Antiviral Activity” (International Journal of Molecular Sciences, 2023)
Like-named read-outs stand apart in the source and are kept apart here.

Columns and labels:
[1] = test system: SARS-CoV-2; assay: Cell survival following SARS-CoV-2 challenge; assay type: cell-based
[2] = molecular target: Helicase (NSP13); conditions: cited from earlier work
[3] = test system: wild-type (alpha strain, SARS-CoV-2, USA-WA1/2020) SARS-CoV-2; assay: Inhibition of SARS-CoV-2 mediated cell death, wild type (dose response); assay type: cell-based
[4] = test system: Vero cell line
[5] = test system: SARS-CoV-2; conditions: cited from earlier work
[6] = read-out: Tox CC50, cited from earlier work
[7] = test system: SARS-CoV-2; set-up: method as in Ref11; conditions: in vivo (Sirian hamster); ref Ref11; cited from earlier work
[8] = Severe acute respiratory syndrome coronavirus 2, Vero, read-out: IC50, dose response anti-viral testing (Figure 4), alpha strain USA-WA1/2020, legend names Vero cells
[9] = Severe acute respiratory syndrome coronavirus 2, wild-type (alpha strain, USA-WA1/2020), read-out: IC50 Values For inhibition of SARS-CoV-2 Mediated Cell Death, Wild Type
[10] = wild-type (alpha strain, USA-WA1/2020), read-out: IC50 Values For inhibition of SARS-CoV-2 Mediated Cell Death, Wild Type

For `Cc1ccc(S(=O)(=O)N[C@@H](Cc2ccccc2)C(=O)NCC2(O)CC2)cc1` [Compound 5, (S)-N-((1-hydroxycyclopropyl)methyl)-2-((4-methylphenyl)sulfonamido)-3-phenylpropanamide], the “Cell Survival following SARS-CoV-2 Challenge” value ([1]; 5 µM inhibitor concentration) was 30.0 and the “Cell Survival following SARS-CoV-2 Challenge” value ([1]; 50 µM inhibitor concentration) was 30.7.
In the case of `CC(C)=CCc1c(O)cc(O)c2c(=O)cc(-c3ccc(O)cc3)oc12` [licoflavone C], the IC50 ([2]; Enzyme assay, ref Ref8) is listed as 1.34 µM.
In the case of `O=C(N[C@@H](Cc1ccc(O)cc1)C(=O)NC1CCC1=O)OCc1ccccc1` (stereo partly drawn) [Compound 7, Benzyl ((2S)-3-(4-hydroxyphenyl)-1-oxo-1-((2-oxocyclobutyl)amino)propan-2-yl) carbamate], the “Cell Survival following SARS-CoV-2 Challenge” value ([1]; 5 µM inhibitor concentration) is reported as -2 and the “Cell Survival following SARS-CoV-2 Challenge” value ([1]; 50 µM inhibitor concentration) is reported as 28.1.
In the case of `O=C(N[C@H](Cc1ccccc1)C(=O)NC1CCC1=O)OCc1ccccc1` (stereo partly drawn) [Compound 2, Benzyl ((2R)-1-oxo-1-((2-oxocyclobutyl)amino)-3-phenylpropan-2-yl) carbamate], the IC50 [3, 8] is reported as 20.3 ± 14.4 µM, the IC50 [3, 9] is reported as 6.89 µM and the “toxicity / growth inhibition of Vero cell line” value (“toxicity / growth inhibition” for short) [4] is reported as “some inhibitory effect on Vero cell line growth”. For the same compound, the “Cell Survival following SARS-CoV-2 Challenge” value ([1]; 5 µM inhibitor concentration) was 24.2, the “Cell Survival following SARS-CoV-2 Challenge” value ([1]; 50 µM inhibitor concentration) was 34.7 and the cell survival ([1]; at 5 µM) was 24.2%.
For `C=C[C@@H]1C[C@]1(NC(=O)[C@@H]1C[C@@H]2CN1C(=O)[C@H](C(C)(C)C)NC(=O)O[C@@H]1C[C@H]1CCCCCc1nc3ccc(OC)cc3nc1O2)C(=O)NS(=O)(=O)C1CC1` [Grazoprevir], the IC50 ([5]; in vitro assay, ref Ref6, read-out: Antiviral activity IC50) is listed as 1.41 µM.
In the case of `Cc1ccc(S(=O)(=O)N[C@H](Cc2ccccc2)C(=O)NC2CCC2=O)cc1` (stereo partly drawn) [Compound 6, (2R)-2-((4-Methylphenyl)sulfonamido)-N-(2-oxocyclobutyl)-3-phenylpropanamide], the “Cell Survival following SARS-CoV-2 Challenge” value ([1]; 5 µM inhibitor concentration) is reported as 26.6 and the “Cell Survival following SARS-CoV-2 Challenge” value ([1]; 50 µM inhibitor concentration) is reported as 35.9.
With `Cc1ccc(S(=O)(=O)N[C@@H](Cc2ccccc2)C(=O)NCC(C)(C)O)cc1` [Compound 10, (S)-N-(2-hydroxy-2-methylpropyl)-2-((4-methylphenyl)sulfonamido)-3-phenylpropanamide] the IC50 [3, 8] was 6.95 ± 1.95 µM, the IC50 [3, 9] was 6.68 µM and the “toxicity / growth inhibition” value [4] was “some inhibitory effect on Vero cell line growth”. The “Cell Survival following SARS-CoV-2 Challenge” value ([1]; 5 µM inhibitor concentration) was 36.7 and the “Cell Survival following SARS-CoV-2 Challenge” value ([1]; 50 µM inhibitor concentration) was 59.2.
With “(2R)-2-((4-Methoxyphenyl) sulfonamido)-3-methyl-N-(2-oxocyclobutyl) butanamide [Compound 8]” the IC50 [3, 10] was 13.7 µM, the “Cell Survival following SARS-CoV-2 Challenge” value ([1]; 5 µM inhibitor concentration) was 32.0 and the “Cell Survival following SARS-CoV-2 Challenge” value ([1]; 50 µM inhibitor concentration) was 49.1.
In the case of `COc1ccc2cc1Oc1ccc(cc1)C[C@H]1c3c(cc4c(c3Oc3cc5c(cc3OC)CCN(C)[C@@H]5C2)OCO4)CCN1C` [cepharanthine], the IC50 ([5]; read-out: IC50, anti-SARS-CoV-2 activity) is given as 400 µM.
For `C=CCn1c(CSc2ccccc2[N+](=O)[O-])n[nH]c1=S` [SSYA10-001], the CC50 ([6]; In vitro, ref Ref4) is listed as 80.5 µM.
In the case of `CCN(CC)C(=S)SSC(=S)N(CC)CC` [Disulfiram], the IC50 ([2]; Enzyme and in vitro assay, ref Ref10) is given as 0.41 µM and the IC50 ([5]; in vitro assay, ref Ref10, read-out: Antiviral activity IC50) is given as 3.18 µM.
For `Cc1ccc(S(=O)(=O)N[C@@H](Cc2ccccc2)C(=O)NC2CCC2=O)cc1` (stereo partly drawn) [Compound 1, (2S)-2-((4-Methylphenyl)sulfonamido)-N-(2-oxocyclobutyl)-3-phenylpropanamide], the IC50 [3, 9] was 15.4 µM, the “Cell Survival following SARS-CoV-2 Challenge” value ([1]; 5 µM inhibitor concentration) was 39.3 and the “Cell Survival following SARS-CoV-2 Challenge” value ([1]; 50 µM inhibitor concentration) was 49.8.
For `O=C([O-])c1cc(=O)[nH]c(=O)[nH]1.O=C([O-])c1cc(=O)[nH]c(=O)[nH]1.[Zn+2]` [Zinc Orotate], the IC50 ([2]; Enzyme assay, ref Ref5) is given as 4.12 µM.
In the case of `CC(C)[C@H](NC(=O)CCCCCN1C(=O)C=CC1=O)C(=O)N[C@@H](CCCNC(N)=O)C(=O)Nc1ccc(COC(=O)Oc2ccc([N+](=O)[O-])cc2)cc1` [MC-Val-Cit-PABC-PNP], the IC50 ([2]; Enzyme assay, ref Ref5) is listed as 2.45 µM.
In the case of `CNC(=C[N+](=O)[O-])NCCSCc1ccc(CN(C)C)o1.O=C([O-])CC(O)(CC(=O)[O-])C(=O)[O-].[Bi+3]` [Ranitidine bismuth citrate], the “viral load redn in Animal lungs & nasal turbinate” value [7] is given as 1 to 1.5 log, the IC50 ([2]; In vitro & in vivo, ref Ref11, read-out: Enzyme Assay IC50) is given as 0.69 µM and the CC50 ([6]; ref Ref11) is given as 3250 µM.
In the case of `COc1cc(C(=O)NS(=O)(=O)c2ccccc2C)ccc1Cc1cn(C)c2ccc(NC(=O)OC3CCCC3)cc12` [Zafirlukast], the IC50 ([2]; Enzyme assay, ref Ref7) is given as 16.3 µM.
In the case of `O=C(O)CSc1cc(NS(=O)(=O)c2ccc(Br)cc2)c2ccccc2c1O` [UMI-77], the IC50 ([2]; Enzyme assay, ref Ref5) is given as 4.38 µM.
In the case of `O=C1O[C@H]2[C@@H]3OC(=O)c4cc(O)c(O)c(O)c4-c4c(O)c(O)c5oc(=O)c6c(c(O)c(O)c7oc(=O)c4c5c76)-c4c(cc(O)c(O)c4O)C(=O)OC[C@H]3OC(O)[C@@H]2OC(=O)c2cc(O)c(O)c(O)c2-c2c1cc(O)c(O)c2O` (mixture of isomers) [Punicalagin], the IC50 ([2]; Enzyme assay, ref Ref5) is given as 0.43 µM, the IC50 ([5]; in vitro assay, ref Ref5, read-out: Antiviral activity IC50) is given as 0.347 µM and the CC50 ([6]; ref Ref5) is given as 33.9 µM.
For `CC(C)[C@H](NC(=O)OCc1ccccc1)C(=O)NC1CCC1=O` (stereo partly drawn) [Compound 3, Benzyl ((2S)-3-methyl-1-oxo-1-((2-oxocyclobutyl)amino)butan-2-yl) carbamate], the IC50 [3, 8] was 15.1 ± 8.22 µM, the IC50 [3, 9] was 13.1 µM and the “Cell Survival following SARS-CoV-2 Challenge” value ([1]; 5 µM inhibitor concentration) was 37.9. The “Cell Survival following SARS-CoV-2 Challenge” value ([1]; 50 µM inhibitor concentration) was 54.9.
For `Oc1cc(O)c2c(c1)O[C@H](c1cc(O)c(O)c(O)c1)[C@H](O)[C@H]2c1c(O)cc(O)c2c1O[C@H](c1cc(O)c(O)c(O)c1)[C@H](O)[C@H]2c1c(O)cc(O)c2c1O[C@H](c1cc(O)c(O)c(O)c1)[C@H](O)C2` [Katacine], the IC50 ([2]; Enzyme assay, ref Ref5) is given as 5.98 µM.
In the case of FPA124, the IC50 ([2]; Enzyme assay, ref Ref9) is listed as 8.5 µM and the IC50 ([5]; ref Ref9, read-out: Antiviral activity IC50) is listed as 14 µM.
With `O=C(N[C@@H](Cc1ccccc1)C(=O)NC1CCC1=O)OCc1ccccc1` (stereo partly drawn) [Compound 9, Benzyl ((2S)-1-oxo-1-((2-oxocyclobutyl)amino)-3-phenylpropan-2-yl) carbamate] the IC50 [3, 8] was 8.53 ± 5.15 µM, the “Cell Survival following SARS-CoV-2 Challenge” value ([1]; 5 µM inhibitor concentration) was 41.6 and the “Cell Survival following SARS-CoV-2 Challenge” value ([1]; 50 µM inhibitor concentration) was 57.5.
`Cc1ccc(S(=O)(=O)N[C@@H](Cc2c[nH]c3ccccc23)C(=O)NC2CCC2=O)cc1` (stereo partly drawn) [Compound 4, (2S)-3-(1H-Indol-3-yl)-2-((4-methylphenyl)sulfonamido)-N-(2-oxocyclobutyl)propanamide] gave an IC50 [3, 8] of 13.2 ± 2.35 µM, an IC50 ([3]; Severe acute respiratory syndrome coronavirus 2, read-out: IC50 Values For inhibition of SARS-CoV-2 Mediated Cell Death, Wild Type, wild-type (alpha strain, USA-WA1/2020)) of 6.7 µM and an IC50 [3, 10] of 13 µM. The “toxicity / growth inhibition” value [4] was “least toxic against the Vero cell line”, the “Cell Survival following SARS-CoV-2 Challenge” value ([1]; 5 µM inhibitor concentration) was 54.3 and the “Cell Survival following SARS-CoV-2 Challenge” value ([1]; 50 µM inhibitor concentration) was 70.9.
In the case of Tannic acid, the IC50 ([2]; Enzyme assay, ref Ref5) is given as 1.25 µM.
In the case of `O=C(N/N=C/c1cc(O)c(O)cc1O)c1cc2ccccc2cc1O` [Dyngo-4a], the IC50 ([2]; Enzyme assay, ref Ref5) is given as 0.63 µM.
For `CC(C)c1cc2c(c(O)c1O)[C@@]13CCCC(C)(C)[C@@H]1[C@H](OC3=O)[C@H]2O` [Rosmanol], the IC50 ([2]; Enzyme assay, ref Ref5) is given as 8.93 µM.
